Source: US9499502B2, “5-substituted iminothiazines and their mono- and dioxides as BACE inhibitors, compositions, and their use” (Merck Sharp & Dohme Corp., priority 2011, dated 2016)

Molecular target: soluble human BACE1 catalytic domain (Homo sapiens (Human), UniProt P56817)
Assay: BACE1 HTRF FRET Assay
Details: read-out: BACE1 % Inh. at 10 μM, at 10 μM

soluble human BACE1 catalytic domain, sequence (P56817 75-416): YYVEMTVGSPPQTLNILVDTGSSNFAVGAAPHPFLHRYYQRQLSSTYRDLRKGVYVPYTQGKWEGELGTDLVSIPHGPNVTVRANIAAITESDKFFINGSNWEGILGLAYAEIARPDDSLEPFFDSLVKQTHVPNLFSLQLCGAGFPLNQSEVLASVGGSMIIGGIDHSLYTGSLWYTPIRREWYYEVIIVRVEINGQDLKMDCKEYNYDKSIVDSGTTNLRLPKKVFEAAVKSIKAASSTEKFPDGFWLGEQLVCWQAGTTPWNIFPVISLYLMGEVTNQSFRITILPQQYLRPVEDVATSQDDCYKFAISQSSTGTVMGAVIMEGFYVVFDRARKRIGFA

Structure (SMILES) | inhibition at 10 µM [%]
CC1(C)C(=N)N[C@](C)(c2nc(-c3cncc(C#N)c3)ccc2F)CS1(=O)=O [Example 16d] | 29
COc1cccc2cc(-c3ccc(F)c([C@]4(C)CS(=O)(=O)C(C)(C)C(=N)N4)n3)[nH]c12 [Example 16e] | 31

Same assay, conditions: read-out: BACE1 Ki; Ki calculated from IC50 using the Cheng-Prusoff equation

Structure (SMILES) | Ki [nM]
CC1(C)C(=N)N[C@](C)(c2cc(NC(=O)c3ccc(Cl)cn3)cc(Cl)c2F)CS1(=O)=O [Example 9t] | 3.3
COc1ccc(C(=O)Nc2cc(Cl)c(F)c([C@]3(C)CS(=O)(=O)C(C)(C)C(=N)N3)c2)nc1 [Example 9u] | 5.8
COc1cnc(C(=O)Nc2cc(Cl)c(F)c([C@]3(C)CS(=O)(=O)C(C)(C)C(=N)N3)c2)cn1 [Example 9w] | 4.4
CC1(C)C(=N)N[C@](C)(c2nc(-c3cccc(C#N)c3)ccc2F)CS1(=O)=O [Example 16b] | 4960
CC1(C)C(=N)N[C@](C)(c2nc(-c3ccc(C#N)s3)ccc2F)CS1(=O)=O [Example 16c] | 3590
CCc1cccc(NC(=O)c2cc(Cl)c([C@]3(C)CS(=O)(=O)C(C)(C)C(=N)N3)s2)n1 [Example 19] | 134
CC1(C)C(=N)N[C@](C)(c2sc(C(=O)Nc3cccc(F)n3)cc2Cl)CS1(=O)=O [Example 21] | 265
CC1(C)C(=N)N[C@](C)(c2sc(C(=O)Nc3cccc(C(F)(F)F)n3)cc2Cl)CS1(=O)=O [Example 22] | 175

Continued, values first:

Ki [nM] | Structure (SMILES)
1400 | CC1(C)C(=N)N[C@](C)(c2sc(C(=O)NCc3ncccc3Cl)cc2Cl)CS1(=O)=O [Example 22a]
3520 | CC1(C)C(=N)N[C@](C)(c2sc(C(=O)NCc3ncccn3)cc2Cl)CS1(=O)=O [Example 22b]
7880 | Cc1cccc(CNC(=O)c2cc(Cl)c([C@]3(C)CS(=O)(=O)C(C)(C)C(=N)N3)s2)n1 [Example 22c]
4630 | CC1(C)C(=N)N[C@](C)(c2sc(C(=O)NCc3ccc4cnccc4c3)cc2Cl)CS1(=O)=O [Example 22d]
759 | Cc1ccc(CNC(=O)c2cc(Cl)c([C@]3(C)CS(=O)(=O)C(C)(C)C(=N)N3)s2)nn1 [Example 22e]
1620 | CC1(C)C(=N)N[C@](C)(c2sc(C(=O)NCc3ccccc3Cl)cc2Cl)CS1(=O)=O [Example 22h]
1160 | CC1(C)C(=N)N[C@](C)(c2sc(C(=O)NCc3cccc(F)c3)cc2Cl)CS1(=O)=O [Example 22i]
753 | CC1(C)C(=N)N[C@](C)(c2sc(C(=O)NCc3ccc(F)cc3)cc2Cl)CS1(=O)=O [Example 22j]
863 | CC1(C)C(=N)N[C@](C)(c2sc(C(=O)NCc3ccc(Cl)cc3)cc2Cl)CS1(=O)=O [Example 22k]
1270 | CC1(C)C(=N)N[C@](C)(c2sc(C(=O)NCc3cccc(Cl)c3)cc2Cl)CS1(=O)=O [Example 22l]
1030 | CC1(C)C(=N)N[C@](C)(c2sc(C(=O)NCc3ccc(C#N)cc3)cc2Cl)CS1(=O)=O [Example 22m]
917 | CC1(C)C(=N)N[C@](C)(c2sc(C(=O)NCC3CCC3)cc2Cl)CS1(=O)=O [Example 22n]
1180 | CC1(C)C(=N)N[C@](C)(c2sc(C(=O)NCc3ncc(F)cc3Cl)cc2Cl)CS1(=O)=O [Example 22o]
1800 | CC1(C)C(=N)N[C@](C)(c2sc(C(=O)NCc3ccc(C(F)(F)F)cn3)cc2Cl)CS1(=O)=O [Example 22p]
359 | CC1(C)C(=N)N[C@](C)(c2sc(C(=O)NCc3cnoc3)cc2Cl)CS1(=O)=O [Example 22q]
186 | CC1(C)C(=N)N[C@](C)(c2sc(C(=O)NCc3cnsn3)cc2Cl)CS1(=O)=O [Example 22r]
128 | CC1(C)C(=N)N[C@](C)(c2sc(C(=O)NCc3cnn4ccccc34)cc2Cl)CS1(=O)=O [Example 22s]
3130 | CC1(C)C(=N)N[C@](C)(c2sc(C(=O)NCc3ccncn3)cc2Cl)CS1(=O)=O [Example 22t]
292 | CC1(C)C(=N)N[C@](C)(c2sc(C(=O)NCc3ccsn3)cc2Cl)CS1(=O)=O [Example 22v]
26.1 | CC1(C)C(=N)N[C@](C)(c2sc(-c3cc(F)cc(-c4cnco4)c3)cc2Cl)CS1(=O)=O [Example 27aa]
